Where a SMILES comes first, the peptide text is derived from it. [ ]: non-standard residue; d: D form. Nle = CCCC[C@H](N)C(=O)O
Columns and labels:
[1] = biological target: T1, Calpain 1 (Homo sapiens, UniProt P04632+P07384); assay: Inhibitory activity against calpain I; no inhibition was observed; format: protein-complex assay
T1 sequence (P04632 whole entry): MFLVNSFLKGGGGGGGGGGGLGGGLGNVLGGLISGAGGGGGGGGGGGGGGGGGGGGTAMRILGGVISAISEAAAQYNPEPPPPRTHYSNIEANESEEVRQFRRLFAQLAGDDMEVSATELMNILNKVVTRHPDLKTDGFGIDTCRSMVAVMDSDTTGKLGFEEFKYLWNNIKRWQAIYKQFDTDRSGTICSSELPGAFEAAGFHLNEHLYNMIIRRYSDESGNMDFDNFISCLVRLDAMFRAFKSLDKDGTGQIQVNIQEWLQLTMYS
T1 sequence (P07384 whole entry): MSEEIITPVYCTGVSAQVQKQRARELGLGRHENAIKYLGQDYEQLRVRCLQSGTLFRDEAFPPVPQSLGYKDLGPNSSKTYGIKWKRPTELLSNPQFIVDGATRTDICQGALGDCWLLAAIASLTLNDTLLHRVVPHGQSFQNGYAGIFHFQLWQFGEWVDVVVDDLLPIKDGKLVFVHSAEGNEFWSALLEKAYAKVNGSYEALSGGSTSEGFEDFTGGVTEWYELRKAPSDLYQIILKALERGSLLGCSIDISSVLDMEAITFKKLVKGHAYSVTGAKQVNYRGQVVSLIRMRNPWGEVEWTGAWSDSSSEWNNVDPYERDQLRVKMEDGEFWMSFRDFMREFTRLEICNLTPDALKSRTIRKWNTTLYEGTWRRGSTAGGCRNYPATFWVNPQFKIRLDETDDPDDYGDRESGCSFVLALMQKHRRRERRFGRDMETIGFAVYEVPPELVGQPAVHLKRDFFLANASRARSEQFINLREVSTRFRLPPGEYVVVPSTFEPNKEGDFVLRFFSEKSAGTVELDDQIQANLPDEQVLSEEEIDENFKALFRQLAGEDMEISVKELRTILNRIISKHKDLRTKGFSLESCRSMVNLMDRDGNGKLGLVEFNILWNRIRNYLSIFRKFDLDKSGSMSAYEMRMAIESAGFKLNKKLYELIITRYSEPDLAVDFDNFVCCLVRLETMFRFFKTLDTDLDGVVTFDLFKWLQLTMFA

[2] = test system: Proteasome; assay: Inhibition of chymotrypsin-like activity of 20S proteasome; value ranges from 10-20 uM; format: subcellular
[3] = test system: Proteasome; assay: Inhibition of chymotrypsin-like activity of 20S proteasome; format: subcellular
[4] = test system: RAW; assay: Antiproliferative activity against murine macrophage (RAW) cell line; format: functional, cell-based; settings: Mus musculus
[5] = biological target: Calpain 1 (Homo sapiens, UniProt P07384); assay: Inhibitory activity against Calpain I; format: protein-complex assay

| Structure (SMILES) | IC50 [1] | IC50 [2] [µM] | IC50 [3] [µM] | IC50 [5] [µM] | IC50 [4] [µM] |
| --- | --- | --- | --- | --- | --- |
| COc1ccc2c(c1)C(CC(=O)N[C@H](CC(C)C)C(=O)N[C@@H](CC(C)C)C(=O)NCC(N)=O)CC2=O (some centres undefined) | No inhibition | 10 | – | – | – |
| COc1ccc2c(c1)C(CC(=O)N[C@@H](CC(C)C)C(=O)N[C@H](CC(C)C)C(=O)NCc1ccc(-c3ccccc3)cc1)CC2=O (some centres undefined) | No inhibition | – | 0.49 | – | – |
| COc1ccc2c(c1)C(CC(=O)N[C@@H](CC(C)C)C(=O)N[C@H](CC(C)C)C(=O)N1CCCCC1)CC2=O (some centres undefined) | No inhibition | – | > 20 | – | – |
| COc1ccc2c(c1)C(CC(=O)N[C@@H](C(=O)N[C@H](CC(C)C)C(N)=O)C(C)C)CC2=O (some centres undefined) | No inhibition | – | > 20 | – | – |
| COc1ccc2c(c1)C(CC(=O)N[C@H](CC(C)C)C(=O)N[C@@H](CC(C)C)C(N)=O)CC2=O (some centres undefined) | No inhibition | – | > 20 | – | – |
| COc1ccc2c(c1)C(CC(=O)N[C@H](CC(C)C)C(=O)N[C@H](CC(C)C)C(N)=O)CC2=O (some centres undefined) | No inhibition | – | 2.2 | – | – |
| COc1ccc2c(c1)C(CC(=O)N[C@@H](CC(C)C)C(=O)N[C@H](CC(C)C)C(=O)NC(c1ccccc1)c1ccccc1)CC2=O (some centres undefined) | No inhibition | – | > 16 | – | – |
| COc1ccc2c(c1)C(CC(=O)N[C@@H](CC(C)C)C(=O)N[C@H](CC(C)C)C(=O)NCc1ccccc1-c1ccccc1)CC2=O (some centres undefined) | No inhibition | – | > 16 | – | – |
| COc1ccc2c(c1)C(CC(=O)N[C@@H](CC(C)C)C(=O)N[C@H](CC(C)C)C(=O)N1CCOCC1)CC2=O (some centres undefined) | No inhibition | – | > 20 | – | – |
| COc1ccc2c(c1)C(CC(=O)N[C@@H](CC(C)C)C(=O)N[C@H](CC(C)C)C(=O)N1CCCC1)CC2=O (some centres undefined) | No inhibition | – | > 20 | – | – |
| COc1ccc2c(c1)C(CC(=O)N[C@@H](CC(C)C)C(=O)N[C@H](CC(C)C)C(=O)NCc1occ3ccccc13)CC2=O (some centres undefined) | No inhibition | – | 8.7 | – | – |
| COc1ccc2c(c1)C(CC(=O)N[C@@H](CC(C)C)C(=O)N[C@H](CC(C)C)C(N)=O)CC2=O (some centres undefined) | No inhibition | – | > 20 | – | – |
| COc1ccc2c(c1)C(CC(=O)N[C@@H](CC(C)C)C(=O)N[C@H](CC(C)C)C(=O)NCc1ccco1)CC2=O (some centres undefined) | No inhibition | – | 1.9 | – | – |
| CCC[C@H](NC(=O)CC1CC(=O)c2ccc(OC)cc21)C(=O)N[C@H](CC(C)C)C(=O)NCC(N)=O (some centres undefined) | No inhibition | – | > 20 | – | – |
| COc1ccc2c(c1)C(CC(=O)N[C@@H](CC(C)C)C(=O)N[C@H](CC(C)C)C(=O)NC1C3CC4CC(C3)CC1C4)CC2=O (some centres undefined) | No inhibition | – | > 18 | – | – |
| COc1ccc2c(c1)C(CC(=O)N[C@@H](CC(C)C)C(=O)N[C@H](CC(C)C)C(=O)NCc1ccc(OCc3ccccc3)cc1)CC2=O (some centres undefined) | No inhibition | – | 16 | – | – |
| COc1ccc2c(c1)C(CC(=O)N[C@@H](CC(C)C)C(=O)N[C@H](CC(C)C)C(=O)NCc1c(F)cccc1F)CC2=O (some centres undefined) | No inhibition | – | 0.14 | – | 8 |
| COc1ccc2c(c1)C(CC(=O)N[C@H](CC(C)C)C(=O)N[C@H](CC(C)C)C(=O)NCC(N)=O)CC2=O (some centres undefined) | No inhibition | – | > 20 | – | – |
| COc1ccc2c(c1)C(CC(=O)N[C@@H](CC(C)C)C(=O)N[C@H](CC(C)C)C(=O)Nc1ccccc1)CC2=O (some centres undefined) | No inhibition | – | > 19 | – | – |
| COc1ccc2c(c1)C(CC(=O)N[C@@H](CC(C)C)C(=O)N[C@H](CC(C)C)C(=O)NCCO)CC2=O (some centres undefined) | No inhibition | – | > 20 | – | – |
| COc1ccc2c(c1)C(CC(=O)N[C@@H](CC(C)C)C(=O)N[C@H](CC(C)C)C(=O)NCC1CCCCC1)CC2=O (some centres undefined) | No inhibition | – | > 18 | – | – |

The next lines start with results.

| IC50 [1] | IC50 [2] [µM] | IC50 [3] [µM] | IC50 [5] [µM] | Structure (SMILES) | IC50 [4] [µM] |
| --- | --- | --- | --- | --- | --- |
| No inhibition | – | > 20 | – | COc1ccc2c(c1)C(CC(=O)N[C@@H](CC(C)C)C(=O)N[C@@H](CC(C)C)C(N)=O)CC2=O (some centres undefined) | – |
| No inhibition | – | > 18 | – | COc1ccc2c(c1)C(CC(=O)N[C@@H](CC(C)C)C(=O)N[C@H](CC(C)C)C(=O)N(C)Cc1ccccc1)CC2=O (some centres undefined) | – |
| No inhibition | – | 0.34 | – | COc1ccc2c(c1)C(CC(=O)N[C@@H](CC(C)C)C(=O)N[C@H](CC(C)C)C(=O)NCc1ccc3c(c1)OCO3)CC2=O (some centres undefined) | – |
| No inhibition | – | 0.2 | – | COc1ccc2c(c1)C(CC(=O)N[C@@H](CC(C)C)C(=O)N[C@H](CC(C)C)C(=O)NCC(N)=O)CC2=O (some centres undefined) | – |
| No inhibition | – | 0.89 | – | COc1ccc2c(c1)C(CC(=O)N[C@@H](CC(C)C)C(=O)N[C@H](CC(C)C)C(=O)NC1CCc3ccccc31)CC2=O (some centres undefined) | – |
| No inhibition | – | > 16 | – | COc1ccc2c(c1)C(CC(=O)N[C@@H](CC(C)C)C(=O)N[C@H](CC(C)C)C(=O)NCc1c(F)c(F)c(F)c(F)c1F)CC2=O (some centres undefined) | – |
| No inhibition | – | 0.71 | – | COc1ccc(CNC(=O)[C@@H](CC(C)C)NC(=O)[C@H](CC(C)C)NC(=O)CC2CC(=O)c3ccc(OC)cc32)cc1 (some centres undefined) | – |
| No inhibition | – | > 18 | – | COc1ccc2c(c1)C(CC(=O)N[C@@H](CC(C)C)C(=O)N[C@H](CC(C)C)C(=O)NCCc1ccccc1)CC2=O (some centres undefined) | – |
| No inhibition | – | > 20 | – | COc1ccc2c(c1)C(CC(=O)N[C@@H](CC(C)C)C(=O)N[C@H](CC(C)C)C(=O)NC(C)C)CC2=O (some centres undefined) | – |
| No inhibition | – | 0.93 | – | COc1ccc2c(c1)C(CC(=O)N[C@@H](CC(C)C)C(=O)N[C@H](CC(C)C)C(=O)NCc1ccccc1)CC2=O (some centres undefined) | 7 |
| No inhibition | – | > 20 | – | COc1ccc2c(c1)C(CC(=O)N[C@H](Cc1ccccc1)C(=O)N[C@H](CC(C)C)C(N)=O)CC2=O (some centres undefined) | – |
| No inhibition | – | > 20 | – | COc1ccc2c(c1)C(CC(=O)N[C@@H](CC(C)C)C(=O)N[C@@H](CC(C)C)C(=O)NCC(N)=O)CC2=O (some centres undefined) | – |
| No inhibition | – | > 20 | – | COc1ccc2c(c1)C(CC(=O)N[C@H](CC(C)C)C(=O)N[C@@H](C(N)=O)C(C)C)CC2=O (some centres undefined) | – |
| No inhibition | – | > 17 | – | COc1ccc2c(c1)C(CC(=O)N[C@@H](CC(C)C)C(=O)N[C@H](CC(C)C)C(=O)NCc1ccc([N+](=O)[O-])cc1)CC2=O (some centres undefined) | – |
| – | – | 0.15 | 7 | CCCC[C@@H](C=O)NC(=O)[C@H](CC(C)C)NC(=O)[C@H](CC(C)C)NC(C)=O (Ac-Leu-Leu-[Nle]-aldehyde) | – |

— ChEMBL document CHEMBL1131403, “Selective inhibition of the chymotrypsin-like activity of the 20S proteasome by 5-methoxy-1-indanone dipeptide benzamides” (Bioorg Med Chem Lett, 1998)
